Test results taken from the supplement of paper PMC10307832.

Tests used:
Test in all cases: relative viability (nuclei count vs DMSO), 5 days (fraction); higher = more cells survive
Halofuginone + AZD7762 = compound: O=C(C[C@H]1NCCC[C@@H]1O)Cn1cnc2cc(Br)c(Cl)cc2c1=O (racemic) [Halofuginone] + NC(=O)Nc1cc(-c2cccc(F)c2)sc1C(=O)N[C@H]1CCCNC1 [AZD7762] (partner 0.2 µM)
Summary of the method: (§1)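 Relative viability equals treated-well nuclei counts divided by vehicle-well nuclei counts. Counts came from 4× images of lung cancer cell lines grown in 1536-well plates for 5 days after pin-tool dosing on the day after seeding. Dosing used one drug alone or a fixed anchor-drug dose plus five library-drug doses (not always all listed) in √10 steps, and values are medians of duplicate plates.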

Decitabine + OSI-027 = compound: Nc1ncn([C@H]2C[C@H](O)[C@@H](CO)O2)c(=O)n1 [Decitabine] + COc1cccc2cc(-c3nc([C@H]4CC[C@H](C(=O)O)CC4)n4ncnc(N)c34)[nH]c12 [OSI-027] (partner 0.5 µM)
Summary of the method: as §1

Decitabine + Vorinostat = compound: Nc1ncn([C@H]2C[C@H](O)[C@@H](CO)O2)c(=O)n1 [Decitabine] + O=C(CCCCCCC(=O)Nc1ccccc1)NO [Vorinostat] (partner 1 µM)
Summary of the method: as §1

[1] = compound: O=C(C[C@H]1NCCC[C@@H]1O)Cn1cnc2cc(Br)c(Cl)cc2c1=O (racemic) [Halofuginone] + O=C(CCCCCCC(=O)Nc1ccccc1)NO [Vorinostat] (partner 1 µM)
Summary of the method: as §1

| Cell Line | relative viability (Halofuginone + AZD7762; first compound 0.001 µM) | relative viability (Halofuginone + AZD7762; first compound 0.003162 µM) | relative viability (Halofuginone + AZD7762; first compound 0.01 µM) | relative viability (Halofuginone + AZD7762; first compound 0.03162 µM) | relative viability (Halofuginone + AZD7762; first compound 0.1 µM) | relative viability (Decitabine + OSI-027; first compound 0.04 µM) | relative viability (Decitabine + OSI-027; first compound 0.1265 µM) | relative viability (Decitabine + OSI-027; first compound 0.4 µM) | relative viability (Decitabine + OSI-027; first compound 1.265 µM) | relative viability (Decitabine + OSI-027; first compound 4 µM) | relative viability (Decitabine + Vorinostat; first compound 0.04 µM) | relative viability (Decitabine + Vorinostat; first compound 0.1265 µM) | relative viability (Decitabine + Vorinostat; first compound 0.4 µM) | relative viability (Decitabine + Vorinostat; first compound 1.265 µM) | relative viability (Decitabine + Vorinostat; first compound 4 µM) | relative viability ([1]; first compound 0.001 µM) | relative viability ([1]; first compound 0.003162 µM) | relative viability ([1]; first compound 0.01 µM) | relative viability ([1]; first compound 0.03162 µM) | relative viability ([1]; first compound 0.1 µM) |
| --- | --- | --- | --- | --- | --- | --- | --- | --- | --- | --- | --- | --- | --- | --- | --- | --- | --- | --- | --- | --- |
| NCI-H441 | 1.13 | 1.35 | 1.18 | 1.3 | 0.599 | 0.415 | 0.441 | 0.246 | 0.261 | 0.255 | 0.211 | 0.281 | 0.249 | 0.169 | 0.181 | 0.799 | 0.936 | 0.863 | 0.8 | 0.49 |
| NCI-H2342 | 0.458 | 0.536 | 0.507 | 0.487 | 0.588 | 0.544 | 0.583 | 0.565 | 0.595 | 0.599 | 0.755 | 0.798 | 0.728 | 0.542 | 0.522 | 0.649 | 0.743 | 0.725 | 0.715 | 0.737 |
| NCI-H1944 | 0.524 | 0.446 | 0.544 | 0.669 | 0.381 | 0.372 | 0.424 | 0.353 | 0.329 | 0.354 | 0.505 | 0.486 | 0.424 | 0.265 | 0.299 | 0.565 | 0.536 | 0.519 | 0.477 | 0.513 |
| NCI-H2405 | 0.79 | 0.881 | 0.674 | 0.678 | 0.541 | 0.555 | 0.564 | 0.543 | 0.444 | 0.399 | 0.765 | 0.878 | 0.894 | 0.561 | 0.395 | 1.07 | 1.06 | 1.02 | 0.958 | 0.577 |
| HCC-15 | 1.19 | 1.26 | 1 | 1.18 | 1.2 | 0.688 | 0.722 | 0.328 | 0.445 | 0.327 | 0.776 | 0.678 | 0.543 | 0.418 | 0.35 | 0.848 | 0.866 | 0.902 | 0.876 | 0.85 |
